This passage reports IC50 results from BindingDB's records for doi:10.1021/jm060168g (Wyeth Research, 2006).

Some results are limits rather than exact numbers.

The assay has as its target Huh7 (Homo sapiens). As to the kind of experiment: Cytotoxicity against human Huh7 cell line containing HCV genotype 1b replicon.

For `O=C(O)[C@@H]1CCCN1S(=O)(=O)c1cc(Cl)c(Cl)c(Cl)c1O` [(S)-1-(3,4,5-trichloro-2-hydroxyphenylsulfonyl)pyrrolidine-2-carboxylic acid], the IC50 (usually the concentration at which inhibition is half-maximal) was greater than 100 µM.
